What is called Ki is the equilibrium dissociation constant of an inhibitor or competing ligand from its target. Read a high Ki as weaker binding. In general, IC50 refers to the midpoint of a concentration-inhibition curve. Read a high IC50 as a need for much substance. By logD is commonly meant the decadic logarithm of the distribution of all forms, ionised or not, between an organic phase and buffer at a given pH. A low value points to a more hydrophilic compound. The pIC50 is −log10 of the IC50, conventionally taken in molar units.

In data set [1] the target is T1, Integrin alpha-V/beta-6 (Homo sapiens, UniProt P06756+P18564).
Target sequence in this assay (P06756 31-889 limits assumed): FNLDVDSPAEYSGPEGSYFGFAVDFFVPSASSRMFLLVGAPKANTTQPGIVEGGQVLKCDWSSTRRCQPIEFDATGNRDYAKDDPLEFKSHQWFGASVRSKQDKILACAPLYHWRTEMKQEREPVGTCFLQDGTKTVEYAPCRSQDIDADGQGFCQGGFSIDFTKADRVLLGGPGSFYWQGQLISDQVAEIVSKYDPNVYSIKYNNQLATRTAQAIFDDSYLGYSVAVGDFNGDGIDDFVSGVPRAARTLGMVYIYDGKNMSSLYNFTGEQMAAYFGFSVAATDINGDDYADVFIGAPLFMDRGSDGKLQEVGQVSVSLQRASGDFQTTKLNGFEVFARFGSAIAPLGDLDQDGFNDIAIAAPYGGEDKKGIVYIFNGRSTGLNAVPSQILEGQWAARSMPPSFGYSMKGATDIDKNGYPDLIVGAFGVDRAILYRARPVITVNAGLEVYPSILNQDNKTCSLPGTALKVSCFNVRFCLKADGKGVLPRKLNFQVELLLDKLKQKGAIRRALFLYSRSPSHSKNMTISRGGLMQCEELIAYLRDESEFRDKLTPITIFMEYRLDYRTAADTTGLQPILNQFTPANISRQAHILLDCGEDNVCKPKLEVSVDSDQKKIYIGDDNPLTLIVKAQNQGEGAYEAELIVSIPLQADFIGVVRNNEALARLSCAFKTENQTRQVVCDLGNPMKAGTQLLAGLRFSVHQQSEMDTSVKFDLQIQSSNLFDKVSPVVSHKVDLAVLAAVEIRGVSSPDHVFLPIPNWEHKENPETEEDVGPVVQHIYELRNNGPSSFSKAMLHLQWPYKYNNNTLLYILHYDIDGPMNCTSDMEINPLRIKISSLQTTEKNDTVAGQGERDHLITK
Target sequence in this assay (P06756 891-1048 limits assumed): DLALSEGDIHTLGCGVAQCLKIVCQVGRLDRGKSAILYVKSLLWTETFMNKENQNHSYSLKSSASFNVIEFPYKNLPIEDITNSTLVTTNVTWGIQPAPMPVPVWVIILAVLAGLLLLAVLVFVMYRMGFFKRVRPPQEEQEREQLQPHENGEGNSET
Target sequence in this assay (P18564 22-788 limits assumed): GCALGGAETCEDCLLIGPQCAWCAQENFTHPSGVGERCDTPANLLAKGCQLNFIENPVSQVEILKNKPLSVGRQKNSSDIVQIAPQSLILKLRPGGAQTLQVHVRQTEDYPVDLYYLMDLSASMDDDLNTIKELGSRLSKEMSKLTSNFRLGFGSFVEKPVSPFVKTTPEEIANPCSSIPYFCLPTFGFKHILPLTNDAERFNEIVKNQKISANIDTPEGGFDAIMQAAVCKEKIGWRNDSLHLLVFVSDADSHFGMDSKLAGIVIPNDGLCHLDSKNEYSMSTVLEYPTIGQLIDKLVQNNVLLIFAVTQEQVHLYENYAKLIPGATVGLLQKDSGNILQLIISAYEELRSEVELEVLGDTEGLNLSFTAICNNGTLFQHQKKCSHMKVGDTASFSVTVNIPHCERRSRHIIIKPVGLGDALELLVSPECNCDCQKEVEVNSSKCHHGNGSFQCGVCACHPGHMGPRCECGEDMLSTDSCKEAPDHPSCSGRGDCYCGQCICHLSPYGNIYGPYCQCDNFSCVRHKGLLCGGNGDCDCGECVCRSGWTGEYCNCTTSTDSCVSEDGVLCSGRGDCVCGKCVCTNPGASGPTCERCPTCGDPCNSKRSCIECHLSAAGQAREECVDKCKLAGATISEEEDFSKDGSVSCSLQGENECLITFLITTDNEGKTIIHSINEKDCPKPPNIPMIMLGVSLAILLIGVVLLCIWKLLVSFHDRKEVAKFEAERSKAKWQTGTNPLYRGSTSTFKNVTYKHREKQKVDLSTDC
Data set [2] deals with T1, Integrin alpha-V/beta-6. The source holds these as a separate data set.
Description: Binding affinity to human integrin alphaVbeta6 assessed as dissociation half life up to 48 hrs by liquid scintillation counting
Data set [3] concerns the target T2, Voltage-gated inwardly rectifying potassium channel KCNH2 (Homo sapiens, UniProt Q12809).
Description: (§1) Inhibition of human ERG expressed in HEK293 cells by Barracuda automated patch clamp assay
For data set [4], the target named is T2, Voltage-gated inwardly rectifying potassium channel KCNH2. This is another data set of the same source.
Description: Inhibition of human ERG expressed in HEK293 cells by Q-patch assay
Data set [5] can be described thus: physchem. The note with it: buffer, pH 7.4, logD.
Data set [6] is described as follows: Protein binding in human blood at 1 ug/ml after 4 hrs by LC-MS/MS analysis. The data set is classed as ADME, tissue-based. To be noted: at 1 µg/mL, read-out: PB (converted).
Data set [7] in a line: Toxicity in rabbit cardiac ventricular wedge assessed as increase in QT interval prolongation at 1 to 3 uM. The data set is classed as tissue-based, Oryctolagus cuniculus, Cardiac ventricle.
In data set [8] the target is T2, Voltage-gated inwardly rectifying potassium channel KCNH2. The note with it: HEK293 cells expressing hERG. A general note: Block of hERG is tested as a sign of cardiac risk.
Description: as §1
The conditions of data set [9]: buffer, pH 7.4.
Data set [10] can be described thus: Stability in solid state form at elevated temperatures and relative humidity conditions. Format: physicochemical.
Data set [11] in a line: Stability in saline at pH 4 at 50 degC. Format: physicochemical. The note with it: buffer.
Data set [12] is described as follows: Stability in pH 5 to 7 solution under refrigerated conditions. The data set is classed as physicochemical. To be noted: buffer.

T2 sequence (Q12809 whole entry): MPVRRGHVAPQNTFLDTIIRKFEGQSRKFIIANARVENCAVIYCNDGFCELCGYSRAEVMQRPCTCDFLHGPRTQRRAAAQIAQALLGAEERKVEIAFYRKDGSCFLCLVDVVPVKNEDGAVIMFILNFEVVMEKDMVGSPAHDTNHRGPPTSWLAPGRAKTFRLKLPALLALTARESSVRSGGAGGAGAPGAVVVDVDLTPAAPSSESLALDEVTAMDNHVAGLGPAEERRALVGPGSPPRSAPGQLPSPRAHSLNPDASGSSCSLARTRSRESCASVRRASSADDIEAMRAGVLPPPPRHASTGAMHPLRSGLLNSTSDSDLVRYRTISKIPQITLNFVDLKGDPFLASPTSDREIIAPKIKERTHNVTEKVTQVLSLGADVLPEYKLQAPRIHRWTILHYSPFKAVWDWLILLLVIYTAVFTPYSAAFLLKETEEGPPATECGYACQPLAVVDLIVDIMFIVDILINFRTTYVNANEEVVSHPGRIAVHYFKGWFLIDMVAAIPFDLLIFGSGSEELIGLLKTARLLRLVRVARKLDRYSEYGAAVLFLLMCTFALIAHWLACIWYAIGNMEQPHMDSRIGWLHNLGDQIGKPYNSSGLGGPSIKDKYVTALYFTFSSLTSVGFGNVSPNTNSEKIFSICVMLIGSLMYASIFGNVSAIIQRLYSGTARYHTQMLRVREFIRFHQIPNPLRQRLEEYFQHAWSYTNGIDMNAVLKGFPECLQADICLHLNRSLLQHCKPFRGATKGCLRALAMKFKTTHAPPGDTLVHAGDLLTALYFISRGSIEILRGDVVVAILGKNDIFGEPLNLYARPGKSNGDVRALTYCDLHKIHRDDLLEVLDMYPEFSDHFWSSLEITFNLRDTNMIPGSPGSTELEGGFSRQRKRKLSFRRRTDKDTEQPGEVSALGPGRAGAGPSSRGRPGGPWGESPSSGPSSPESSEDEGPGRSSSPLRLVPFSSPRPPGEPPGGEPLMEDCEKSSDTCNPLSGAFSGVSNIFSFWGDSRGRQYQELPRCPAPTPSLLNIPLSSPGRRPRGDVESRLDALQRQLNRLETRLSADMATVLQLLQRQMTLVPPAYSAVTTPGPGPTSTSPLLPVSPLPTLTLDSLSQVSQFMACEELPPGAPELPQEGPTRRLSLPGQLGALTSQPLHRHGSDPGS

Consider `N=C(N)Nc1cccc(C(=O)NCC(=O)NC(CC(=O)O)c2cc(Cl)cc(Cl)c2)c1` (stereo unspecified), for which, in data set [1], the Ki is 2 nM. Also, in data set [2], the T1/2 stood at 5 min.
With `O=C(O)C[C@H](CN1CC[C@@H](CCc2ccc3c(n2)NCCC3)C1)c1cccc(OC2COC2)c1`, the figures for the IC50 in data set [3] and in data set [4] were > 50.1 µM and > 31.6 µM, respectively. The logD in data set [5] came to 2.07.
The matching figures for `Cc1nc(C)n(-c2cccc([C@H](CC(=O)O)CN3CC[C@@H](CCc4ccc5c(n4)NCCC5)C3)c2)n1`: > 50.1 µM, > 31.6 µM and 1.66.
In the case of `Cc1nncn1-c1cccc([C@H](CC(=O)O)CN2CC[C@@H](CCc3ccc4c(n3)NCCC4)C2)c1`, in data set [4], the IC50 was > 31.6 µM. For the same molecule, in data set [5], the logD stood at 1.77.
`O=C(O)C[C@H](CN1CC[C@@H](CCc2ccc3c(n2)NCCC3)C1)c1cccc(C2CCOCC2)c1` returned a logD in data set [5] of 2.62.
Regarding `O=C(O)C[C@H](CN1CC[C@@H](CCc2ccc3c(n2)NCCC3)C1)c1cccc(N2CCOCC2)c1`, the logD in data set [5] was found to be 2.27.
`Cc1cc(-c2cccc([C@H](CC(=O)O)CN3CC[C@@H](CCc4ccc5c(n4)NCCC5)C3)c2)[nH]n1`: the IC50 is > 50.1 µM in [3] and 25.1 µM in data set [4]. This molecule also returned a logD in data set [5] of 2.53.
Turning to `O=C(O)C[C@H](CN1CC[C@@H](CCc2ccc3c(n2)NCCC3)C1)c1cccc(-n2ccnn2)c1`, in [6], the fraction unbound at 4 h, 1 ug/ml was 0.28. Further, the IC50 in [3] was > 50.1 µM; in [4], > 31.6 µM. In data set [5], this molecule came in with a logD of 1.75.
`O=C(O)C[C@H](CN1CC[C@@H](CCc2ccc3c(n2)NCCC3)C1)c1cccc(Br)c1` showed an IC50 in [3] of 1.26 µM. For the same molecule, the logD in [5] was found to be 3.15.
As to `Cc1cc(C)n(-c2cc([C@H](CC(=O)O)CN3CC[C@@H](CCc4ccc5c(n4)NCCC5)C3)cc(N3CCOCC3)c2)n1`, in data set [3], the IC50 is > 63.1 µM. The logD in data set [5] turned out to be 2.73.
Regarding `O=C(O)C[C@H](CN1CC[C@@H](CCc2ccc3c(n2)NCCC3)C1)c1cccc(C2CC2)c1`, the Activity entry in data set [7] is on record as “Dose-dependent effect”.
Turning to `Cc1ccnn1-c1cccc([C@H](CC(=O)O)CN2CC[C@@H](CCc3ccc4c(n3)NCCC4)C2)c1`, in [6], the fraction unbound at 4 h, 1 ug/ml is 0.1.
`O=C(O)C[C@H](CN1CC[C@@H](CCc2ccc3c(n2)NCCC3)C1)c1cccc(-n2cncn2)c1`: the fraction unbound at 4 h, 1 ug/ml in [6] is 0.4. The IC50 in [3] is > 50.1 µM; in [4], > 31.6 µM. The logD in data set [5] was 1.95.
As to `Cc1cn(C)c(-c2cccc([C@H](CC(=O)O)CN3CC[C@@H](CCc4ccc5c(n4)NCCC5)C3)c2)n1`, the IC50 in data set [3] is > 50.1 µM; in data set [4] it was > 31.6 µM. This molecule also had a logD in [5] of 2.09.
Consider `O=C(O)C[C@H](CN1CC[C@@H](CCc2ccc3c(n2)NCCC3)C1)c1cccc(-n2cnnc2)c1`, for which the fraction unbound at 4 h, 1 ug/ml in [6] was 0.46. Further, the figures for the IC50 in data set [3] and in data set [4] were > 50.1 µM and > 31.6 µM, respectively. For the same molecule, the logD in [5] was found to be 1.05.
Turning to `Cc1cnn(-c2cccc([C@H](CC(=O)O)CN3CC[C@@H](CCc4ccc5c(n4)NCCC5)C3)c2)c1`, the IC50 in data set [3] is 10 µM. In data set [5], this molecule showed a logD of 3.01.
`O=C(O)C[C@H](CN1CC[C@@H](CCc2ccc3c(n2)NCCC3)C1)c1cc(C2CC2)cc(N2CCOCC2)c1` returned a logD in data set [5] of 3.07.
In [5], `O=C(O)C[C@@H](CN1CC[C@@H](CCc2ccc3c(n2)NCCC3)C1)c1cccc(N2CCOCC2)c1` returned a logD of 1.99.
In the case of `Cc1nc(C)c(-c2cccc([C@H](CC(=O)O)CN3CC[C@@H](CCc4ccc5c(n4)NCCC5)C3)c2)[nH]1`, in data set [6], the fraction unbound at 4 h, 1 ug/ml was 0.53. In addition, the IC50 was > 50.1 µM in data set [3] and > 31.6 µM in data set [4]. Besides, the logD in [5] turned out to be 1.77.
Regarding `Cc1cnn(C)c1-c1cccc([C@H](CC(=O)O)CN2CC[C@@H](CCc3ccc4c(n3)NCCC4)C2)c1`, the logD in [5] was determined as 2.72.
For the molecule `O=C(O)C[C@H](CN1CC[C@@H](CCc2ccc3c(n2)NCCC3)C1)c1cccc(-n2cccn2)c1`, the IC50 was > 50.1 µM in data set [3] and 0.794 µM in data set [4]. Further, the logD in [5] was 2.4.
Take `O=C(O)CC(CN1CC[C@@H](CCc2ccc3c(n2)NCCC3)C1)c1cccc(-n2ccnc2)c1` (mixture of isomers): the IC50 in data set [3] is > 50.1 µM; in data set [4] it was > 31.6 µM. Besides, in data set [5], the logD came to 1.97.
The like results for `O=C(O)C[C@H](CN1CC[C@@H](CCc2ccc3c(n2)NCCC3)C1)c1cccc(C2CCOC2)c1` (stereo in doubt; 28xI1) were, in that order, 39.8 µM, 12.6 µM and 2.56.
`O=C(O)C[C@H](CN1CC[C@@H](CCc2ccc3c(n2)NCCC3)C1)c1cccc(C2CCOC2)c1` (stereo in doubt; 28xI2): the fraction unbound at 4 h, 1 ug/ml in data set [6] was 0.17. In data set [4], this molecule showed an IC50 of 31.6 µM. In data set [8], this molecule displayed a pIC50 of 4.4. This molecule also displayed a logD in [9] of 2.58.
Consider `Cc1cc(C)n(-c2cccc([C@H](CC(=O)O)CN3CC[C@@H](CCc4ccc5c(n4)NCCC5)C3)c2)n1.Cl` [GSK-3008348], for which the figures for the Stability in data set [10], in data set [11] and in data set [12] were 4 weeks, “<= 6 weeks” and 6 weeks, respectively.

The values above are taken from ChEMBL document CHEMBL4229566, “Discovery of ( S)-3-(3-(3,5-Dimethyl-1 H-pyrazol-1-yl)phenyl)-4-(( R)-3-(2-(5,6,7,8-tetrahydro-1,8-naphthyridin-2-yl)ethyl)pyrrolidin-1-yl)butanoic Acid, a Nonpeptidic αvβ6 Integrin Inhibitor for the Inhaled Treatment of Idiopathic Pulmonary Fibrosis” (J Med Chem, 2018).
